Columns and labels:
Type in all cases: in vivo
Set-up in all cases: scale not given here
cotton (Go) = assay: Test Example 4: crop plant selectivity by upland field soil treatment (cotton), phytotoxicity; settings: evaluated 21st day after application
How it was run: (§1)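 Weeds and cotton, sown in sand and topped with soil, received a soil-applied treatment. Evaluation after three weeks in a greenhouse followed a standard rating scale.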

slender amaranth (Am) [1] = assay: Test Example 11: crop plant selectivity by upland field foliage treatment (corn), herbicidal effects; settings: upland field foliage treatment (corn test), 14th day after treatment
How it was run: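 Corn and the weed species were sown together in sand-filled pots and grown in a greenhouse for 2 weeks before foliar treatment. Herbicidal effect was scored on day 14 after treatment against a graded standard scale, with corn phytotoxicity scored alongside.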

wheat (Tr) = assay: Test Example 5: crop plant selectivity by upland field soil treatment (wheat), phytotoxicity; settings: 21st day after application
How it was run: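 Pre-emergence soil treatment, sand-filled pots, seeds covered with soil; greenhouse culture; visual scoring of weed control and wheat injury at day 21 post-application.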

pale smartweed (Po) = assay: Test Example 4: crop plant selectivity by upland field soil treatment (cotton), herbicidal effects; settings: evaluated 21st day after application
How it was run: as §1

China jute (Ab) = assay: as above; settings: evaluated 21st day after application
How it was run: as §1

green foxtail (Se) [2] = assay: as above; settings: evaluated 21st day after application
How it was run: as §1

[3] = system: common lambsquarters (Ch); assay: as above; settings: evaluated 21st day after application
How it was run: as §1

slender amaranth (Am) [4] = assay: as above; settings: evaluated 21st day after application
How it was run: as §1

green foxtail (Se) [5] = assay: Test Example 7: crop plant selectivity by upland field soil treatment (corn), herbicidal effects; settings: 21st day after application
How it was run: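 Sand-filled pot; corn plus weeds sown, soil-covered. Post-application greenhouse culture. Herbicidal effect/phytotoxicity rated day 21 per standard scale.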

Compound	Phytotoxicity Go (cotton (Go); dose 6.3 g ai/10 a)	Herbicidal effects Am (slender amaranth (Am) [1]; dose 1.6 g ai/10a)	Phytotoxicity Tr (wheat (Tr); dose 6.3 g ai/10a)	Herbicidal effects Po (pale smartweed (Po); dose 6.3 g ai/10 a)	Herbicidal effects Ab (China jute (Ab); dose 6.3 g ai/10 a)	Herbicidal effects Se (green foxtail (Se) [2]; dose 6.3 g ai/10 a)	Herbicidal effects Ch ([3]; dose 6.3 g ai/10 a)	Herbicidal effects Am (slender amaranth (Am) [4]; dose 6.3 g ai/10 a)	Herbicidal effects Se (green foxtail (Se) [5]; dose 6.3 g ai/10a)	Phytotoxicity Go (cotton (Go); dose 1.6 g ai/10 a)	Phytotoxicity Tr (wheat (Tr); dose 1.6 g ai/10a)	Herbicidal effects Po (pale smartweed (Po); dose 1.6 g ai/10 a)	Herbicidal effects Ab (China jute (Ab); dose 1.6 g ai/10 a)	Herbicidal effects Se (green foxtail (Se) [2]; dose 1.6 g ai/10 a)	Herbicidal effects Ch ([3]; dose 1.6 g ai/10 a)	Herbicidal effects Am (slender amaranth (Am) [4]; dose 1.6 g ai/10 a)	Herbicidal effects Se (green foxtail (Se) [5]; dose 1.6 g ai/10a)	Herbicidal effects Am (slender amaranth (Am) [1]; dose 0.1 g ai/10a)
C=CC(C)Oc1cc(-c2ccc(C(F)(F)F)n(C)c2=O)c(F)cc1Cl (centres unmarked) [Compound 1-182]	0	5	1	5	5	5	5	5	5	–	–	–	–	–	–	–	–	–
CCON=Cc1cc(-c2ccc(C(F)(F)F)n(C)c2=O)c(F)cc1Cl [Compound 1-187]	0	5	1	5	5	5	5	5	5	–	–	–	–	–	–	–	–	–
CCOC(=O)CON=Cc1cc(-c2ccc(C(F)(F)F)n(C)c2=O)c(F)cc1Cl [Compound 1-191]	1	5	1	5	5	5	5	5	5	–	–	–	–	–	–	–	–	–
C=CC(O)c1cc(-c2ccc(C(F)(F)F)n(C)c2=O)c(F)cc1Cl (centres unmarked) [Compound 1-197]	1	5	1	5	5	5	5	5	5	–	–	–	–	–	–	–	–	–
CSCOc1cc(-c2ccc(C(F)(F)F)n(C)c2=O)c(F)cc1Cl [Compound 1-208]	1	5	1	4	5	5	5	5	5	–	–	–	–	–	–	–	–	–
C#CCN1C(=O)COc2cc(Cl)c(-c3ccc(C(F)(F)F)n(C)c3=O)cc21 [Compound 2-25]	0	5	2	5	5	5	5	5	–	0	1	5	5	5	5	5	5	–
C=CCN1C(=O)COc2cc(Cl)c(-c3ccc(C(F)(F)F)n(C)c3=O)cc21 [Compound 2-26]	1	5	1	5	5	5	5	5	5	–	–	–	–	–	–	–	–	–
CCCc1cc2c(-c3ccc(C(F)(F)F)n(C)c3=O)c(F)cc(Cl)c2o1 [Compound 4-3]	0	5	2	5	5	5	5	5	5	–	–	–	–	–	–	–	–	–
Cn1c(C(F)(F)F)ccc(-c2cc(C#N)c(Cl)cc2F)c1=O [Compound No. 1-119, 3-(4-chloro-5-cyano-2-fluorophenyl)-1-methyl-6-trifluoromethyl-2(1H)-pyridone]	0	5	–	5	5	5	5	5	5	–	–	–	–	–	–	–	–	–
C#CCN1C(=O)COc2cc(F)c(-c3ccc(C(F)(F)F)n(C)c3=O)cc21 [Compound No. 2-1, 3-[7-fluoro-2,3-dihydro-4-(2-propynyl)-1,4-benzoxazin-3-on-6-yl]-1-methyl-6-trifluoromethyl-2(1H)-pyridone]	–	–	–	–	–	–	–	–	–	2	0	5	5	5	5	5	–	5

From patent publication US6472348B1, “Pyridone derivatives and herbicides” (Kumiai Chemical Industry Co., Ltd., priority 1996, dated 2002)
